This note sets out measurements from US8299065B2, “Antibacterial condensed thiazoles” (Biota Europe Ltd., priority 2007, dated 2012).

Converted amounts (≈) assume the structure as drawn.

The subject of the experiment is Enterococcus faecalis ATCC 29212. Description: MIC testing against Enterococcus faecalis ATCC 29212. Format: cell-based. The note with it: ATCC29212, read-out: MICs against Enterococcus faecalis, Activity. The protocol:
Minimum Inhibitory Concentration (MIC) Testing Compounds of this invention were tested for antimicrobial activity by susceptibility testing in liquid or on solid media. MICs for compounds against each strain were determined by the broth microdilution or agar dilution method according to the guidelines of the Clinical Laboratories and Standards Institute, formerly the National Committee for Clinical Laboratory Standards (Clinical Laboratories and Standards Institute. Methods for Dilution Antimicrobial Susceptibility Tests for Bacteria That Grow Aerobically; Approved Standard—Seventh Edition. Document M7-A7. CLSI, Wayne, Pa., 2006; Clinical Laboratories and Standards Institute. Methods for Antimicrobial Susceptibility Testing of Anaerobic Bacteria; Approved Standard—Sixth Edition. Document M11-A6. CLSI, Wayne, Pa., 2004).
Take `CCNC(=O)Nc1nc2cc(-c3cnc(-n4ccccc4=O)cn3)ccc2s1` [Example 10, 1-ethyl-3-(5-(5-(2-oxopyridin-1(2H)-yl)pyrazin-2-yl)benzo[d]thiazol-2-yl)urea]: the MIC lay within 2 to 16 µg/mL (≈ 5.1 to 40.8 µM).

Regarding `CCNC(=O)Nc1nc2cc(-c3cc(C)n(Cc4cccnc4)c(=O)c3)ccc2s1` [Example 34, 1-ethyl-3-(5-(6-methyl-2-oxo-1-(pyridin-3-ylmethyl)-1,2-dihydropyridin-4-yl)benzo[d]thiazol-2-yl)urea], the MIC is 0.25 to 1 µg/mL (≈ 0.596 to 2.38 µM). `CCNC(=O)Nc1nc2cc(-c3cc(C)n(CC4CCN(C)C4)c(=O)c3)c(F)cc2s1` (stereo not shown) [Example 50, 1-ethyl-3-(6-fluoro-5-(6-methyl-1-((1-methylpyrrolidin-3-yl)methyl)-2-oxo-1,2-dihydropyridin-4-yl)benzo[d]thiazol-2-yl)urea]: the MIC was in the range of 2 to 16 µg/mL (≈ 4.51 to 36.1 µM). For `CCNC(=O)Nc1nc2cc(-c3ccc(N4CCOCC4)nc3)ccc2s1` [Example 27, 1-ethyl-3-(5-(6-morpholinopyridin-3-yl)benzo[d]thiazol-2-yl)urea] the value was 2 to 16 µg/mL (≈ 5.22 to 41.7 µM); for `CCNC(=O)Nc1nc2cc(-c3cc(C)n(CCOC)c(=O)c3)ccc2s1` [Example 31, 1-ethyl-3-(5-(1-(2-methoxyethyl)-6-methyl-2-oxo-1,2-dihydropyridin-4-yl)benzo[d]thiazol-2-yl)urea], 0.25 to 1 µg/mL (≈ 0.647 to 2.59 µM). As to `CCNC(=O)Nc1nc2cc(-c3cnn(CC(=O)OCC)c3)c(F)cc2s1` [Example 39, ethyl 2-(4-(2-(3-ethylureido)-6-fluorobenzo[d]thiazol-5-yl)-1H-pyrazol-1-yl)acetate], the MIC lay within 2 to 16 µg/mL (≈ 5.11 to 40.9 µM). For `CCNC(=O)Nc1nc2cc(-c3cnc(S(C)(=O)=O)nc3)c(F)cc2s1` [Example 70, 1-ethyl-3-(6-fluoro-5-(2-(methylsulfonyl)pyrimidin-5-yl)benzo[d]thiazol-2-yl)urea] the value was 2 to 16 µg/mL (≈ 5.06 to 40.5 µM).

In the case of `CCNC(=O)Nc1nc2cc(-c3cc(C)oc(=O)c3)cnc2s1` [Example 77, 1-ethyl-3-(6-(6-methyl-2-oxo-2H-pyran-4-yl)thiazolo[5,4-b]pyridin-2-yl)urea], the MIC fell in the range of 2 to 16 µg/mL (≈ 6.05 to 48.4 µM).

Consider `CCNC(=O)Nc1nc2cc(-c3ccc4ncnn4c3)ccc2s1` [Example 25, 1-(5-([1,2,4]triazolo[1,5-a]pyridin-6-yl)benzo[d]thiazol-2-yl)-3-ethylurea], for which the MIC was in the range of 0.25 to 1 µg/mL (≈ 0.739 to 2.96 µM). Turning to `CCNC(=O)Nc1nc2cc(-c3ccc4c(=O)c(C(=O)OCC)cn(C)c4c3)ccc2s1` [Example 37, ethyl 7-(2-(3-ethylureido)benzo[d]thiazol-5-yl)-1-methyl-4-oxo-1,4-dihydroquinoline-3-carboxylate], the MIC fell in the range of 2 to 16 µg/mL (≈ 4.44 to 35.5 µM). Regarding `CCNC(=O)Nc1nc2cc(-c3ccc(C(N)=NO)nc3)c(F)cc2s1` [Example 60, 5-(2-(3-ethylureido)-6-fluorobenzo[d]thiazol-5-yl)-N′-hydroxypicolinimidamide], the MIC is 0.25 to 1 µg/mL (≈ 0.668 to 2.67 µM). On to `CCNC(=O)Nc1nc2cc(-c3cc(C)n(Cc4ccccn4)c(=O)c3)ccc2s1` [Example 35, 1-ethyl-3-(5-(6-methyl-2-oxo-1-(pyridin-2-ylmethyl)-1,2-dihydropyridin-4-yl)benzo[d]thiazol-2-yl)urea], for which the MIC is 0.25 to 1 µg/mL (≈ 0.596 to 2.38 µM). With `CCNC(=O)Nc1nc2cc(-c3cnn(C(C)C(=O)OC)c3)c(F)cc2s1` (stereo not shown) [Example 47, methyl 2-(4-(2-(3-ethylureido)-6-fluorobenzo[d]thiazol-5-yl)-1H-pyrazol-1-yl)propanoate], the MIC fell in the range of 2 to 16 µg/mL (≈ 5.11 to 40.9 µM). For `CCNC(=O)Nc1nc2cc(-c3ccc(CN4CCOCC4)nc3)c(F)cc2s1` [Example 66, 1-ethyl-3-(6-fluoro-5-(6-(morpholinomethyl)pyridin-3-yl)benzo[d]thiazol-2-yl)urea] the value was 2 to 16 µg/mL (≈ 4.81 to 38.5 µM). Take `CCNC(=O)Nc1nc2cc(-c3ccc(-c4nnn(C)n4)nc3)ccc2s1` [Example 30, 1-ethyl-3-(5-(6-(2-methyl-2H-tetrazol-5-yl)pyridin-3-yl)benzo[d]thiazol-2-yl)urea]: the MIC lay within 0.25 to 1 µg/mL (≈ 0.657 to 2.63 µM). Next, `CCNC(=O)Nc1nc2cc(-c3cnc(OC)s3)ccc2s1` [Example 22, 1-ethyl-3-(5-(2-methoxythiazol-5-yl)benzo[d]thiazol-2-yl)urea]: 2 to 16 µg/mL (≈ 5.98 to 47.8 µM).
